The record followed here is patent publication US12187709B2 (Genentech, Inc., priority 2021, dated 2025).

Experiment [1] addresses Human Cbl-b (residues 40-426) (Homo sapiens (Human), UniProt Q13191). Kind of experiment: Cbl-b SPR assay. Format: binding. As to conditions: for Fold of selectivity: C-cbl SPR Kd vs Cbl-b SPR Kd; for Kd: SPR, 20° C. A digest of the protocol:
(§1)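 First, protein is captured to 1300-1500 RU. Then compound runs in single cycle kinetics, a blank plus 5 two-fold concentrations up to 500 nM (120 s contact, 50 μl/min, 450 s dissociation). Chaser injections (20 s, 30 μl/min) track occupancy, giving kd, which is fixed when fitting the titration.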

Another experiment concerns the target Cbl-b (Homo sapiens (Human), UniProt Q13191). Briefly: Cbl-b LCK Ub TR-FRET assay (Cbl-b Lck HTRF). Format: biochemical. As to conditions: for (fold-selectivity) Cbl-b and C-Cbl Selectivity / fold-selectivity (Cbl-b over C-cbl): ratio C-cbl Lck HTRF IC50 / Cbl-b Lck HTRF IC50; for IC50: Cbl-b LCK Ub TR-FRET. A digest of the protocol: (§2)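 Detection reagents added, brief spin, 20 min RT. IC50 fit normalized to no-LCK (low) and DMSO (high) controls.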

The target of a further experiment is c-Cbl (Homo sapiens (Human), UniProt P22681). Briefly: C-Cbl LCK Ub TR-FRET assay (C-cbl Lck HTRF). Format: biochemical. The procedure, abridged:
as §2

A further experiment addresses c-Cbl (residues 47-435) (Homo sapiens (Human), UniProt P22681). Briefly: c-Cbl SPR assay. Format: binding. To be noted: 20° C. A digest of the protocol:
as §1

Human Cbl-b (residues 40-426), sequence (Q13191 40-426): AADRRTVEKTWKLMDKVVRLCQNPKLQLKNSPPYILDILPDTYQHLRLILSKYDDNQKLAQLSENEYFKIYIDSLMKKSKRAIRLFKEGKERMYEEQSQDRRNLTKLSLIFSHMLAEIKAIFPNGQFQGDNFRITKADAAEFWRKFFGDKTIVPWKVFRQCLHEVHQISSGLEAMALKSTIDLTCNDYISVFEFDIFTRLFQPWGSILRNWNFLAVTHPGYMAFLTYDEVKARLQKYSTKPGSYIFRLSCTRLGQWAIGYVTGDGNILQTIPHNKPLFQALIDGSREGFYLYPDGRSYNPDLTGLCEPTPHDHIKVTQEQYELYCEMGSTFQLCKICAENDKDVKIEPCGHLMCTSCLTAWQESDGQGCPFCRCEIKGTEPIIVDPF
Cbl-b, sequence (Q13191 40-426): as above
c-Cbl (residues 47-435), sequence (P22681 47-435): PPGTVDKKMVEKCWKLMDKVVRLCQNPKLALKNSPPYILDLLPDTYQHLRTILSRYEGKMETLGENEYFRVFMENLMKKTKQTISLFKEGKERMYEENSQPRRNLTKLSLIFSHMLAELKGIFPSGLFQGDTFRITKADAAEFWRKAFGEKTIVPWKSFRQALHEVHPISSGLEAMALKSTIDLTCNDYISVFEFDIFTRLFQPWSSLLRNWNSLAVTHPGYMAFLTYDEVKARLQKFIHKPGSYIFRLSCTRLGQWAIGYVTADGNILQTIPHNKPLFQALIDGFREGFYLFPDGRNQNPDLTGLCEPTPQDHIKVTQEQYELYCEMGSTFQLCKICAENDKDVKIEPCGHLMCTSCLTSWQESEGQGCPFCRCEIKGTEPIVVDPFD
c-Cbl, sequence (P22681 47-435): as above

Regarding `CC1(NCc2cc3c(c(C(F)(F)F)c2)CN(c2cccc([C@@H](C4COC4)n4ccnn4)c2)C3=O)CCC1` (single isomer, unassigned) [Compound 436], the Fold of selectivity in experiment [1] stood at 5.3×. Besides, the values for the Kd (in experiment [1]; on c-Cbl (residues 47-435)) were 600 nM and 3500 nM, respectively. On Cbl-b, the “(fold-selectivity) Cbl-b and C-Cbl Selectivity” value stood at 4.2x. This molecule also returned an IC50 on c-Cbl of 2400 nM.

As to `C[C@H](NC1(C)CCC1)c1cc2c(c(C(F)(F)F)c1)CN(c1cccc([C@@H](c3nncn3C)C3COC3)c1)C2=O` (single isomer, unassigned) [Compound 442], the Fold of selectivity in experiment [1] is 18×. In addition, the equilibrium dissociation constant (Kd) is 180 nM in experiment [1] and 3300 nM on c-Cbl (residues 47-435). In addition, the IC50 is 260 nM on Cbl-b (Example 121) and 2800 nM at c-Cbl. Also, the “(fold-selectivity) Cbl-b and C-Cbl Selectivity” value at Cbl-b stood at 11x.

In experiment [1], `Cn1cnnc1[C@H](c1cccc(N2Cc3c(cc([C@H](NC4(C)CCC4)C4CC4)cc3C(F)(F)F)C2=O)c1)C1COC1` (single isomer, unassigned) [Compound 456] registered a Fold of selectivity of 18×. The Kd was found to be 230 nM in experiment [1] and 4100 nM at c-Cbl (residues 47-435). Besides, the values for the IC50 against Cbl-b (Example 121) and at c-Cbl were 360 nM and 2400 nM, respectively. In addition, at Cbl-b, the “(fold-selectivity) Cbl-b and C-Cbl Selectivity” value was 6.5x.

In experiment [1], `Cn1cnnc1[C@@H](c1cccc(N2Cc3c(cc(CNC4(C)CCC4)cc3C(F)F)C2=O)c1)C1CC(F)C1` (single isomer, unassigned) [Compound 458] gave a Fold of selectivity of 10×. In addition, the equilibrium dissociation constant (Kd) amounted to 5.7 nM in experiment [1] and 57 nM on c-Cbl (residues 47-435). Further, the 50% inhibitory concentration (IC50) on Cbl-b (Example 121) amounted to 14 nM; against c-Cbl, 43 nM. Besides, the “(fold-selectivity) Cbl-b and C-Cbl Selectivity” value at Cbl-b was 3.1x.

In experiment [1], `Cn1cnnc1[C@@H](c1cccc(N2Cc3c(cc(CNC4(C)CCC4)cc3C(F)F)C2=O)c1)C1CC(F)C1` (single isomer, unassigned) [Compound 459] returned a Fold of selectivity of 6.1×. The dissociation constant Kd in experiment [1] was found to be 0.5 nM; at c-Cbl (residues 47-435), 3.2 nM. The IC50 against Cbl-b (Example 121) was found to be 5.9 nM; at c-Cbl, 6.3 nM. Moreover, on Cbl-b, the “(fold-selectivity) Cbl-b and C-Cbl Selectivity” value worked out at 1.1x.

Consider `CC(C)CNCc1cc2c(c(C(F)(F)F)c1)CN(c1cccc([C@H](c3nncn3C)C3COC3)c1)C2=O` (single isomer, unassigned) [Compound 464], for which, in experiment [1], the Fold of selectivity worked out at 3.3×. The dissociation constant (Kd) in experiment [1] stood at 1.1 nM; on c-Cbl (residues 47-435) it was 3.6 nM. Moreover, the IC50 against Cbl-b (Example 121) was 6.5 nM; on c-Cbl it was 7.1 nM. Moreover, the “(fold-selectivity) Cbl-b and C-Cbl Selectivity” value on Cbl-b came to 1.1x.

As for `Cn1cnnc1[C@@H](c1cccc(N2Cc3c(cc(CNC4(C)CC4)cc3C(F)(F)F)C2=O)c1)C1COC1` (single isomer, unassigned) [Compound 466], the Fold of selectivity in experiment [1] amounted to 3.6×. The Kd is 2.5 nM in experiment [1] and 9.1 nM on c-Cbl (residues 47-435). The IC50 at Cbl-b (Example 121) was 6.2 nM; on c-Cbl, 8.6 nM. Further, the “(fold-selectivity) Cbl-b and C-Cbl Selectivity” value at Cbl-b worked out at 1.4x.

`Cn1cnnc1[C@@H](c1cccc(N2Cc3c(cc(CNCC(C)(C)C)cc3C(F)(F)F)C2=O)c1)C1COC1` (single isomer, unassigned) [Compound 468] came in with a Fold of selectivity in experiment [1] of 7×. For the same molecule, the Kd stood at 1.6 nM in experiment [1] and 12 nM at c-Cbl (residues 47-435). In addition, the IC50 worked out at 5.2 nM on Cbl-b (Example 121) and 7.5 nM against c-Cbl. Further, on Cbl-b, the “(fold-selectivity) Cbl-b and C-Cbl Selectivity” value is listed as 1.4x.

On to `CO[C@H]1C[C@](c2cccc(N3Cc4c(cc(CN[C@@H]5C[C@H]5C(C)(F)F)cc4C(F)(F)F)C3=O)c2)(c2nncn2C)C1` (single isomer, unassigned) [Compound 506], for which the Fold of selectivity in experiment [1] came to 8.1×. For the same molecule, the Kd worked out at 55 nM in experiment [1] and 450 nM on c-Cbl (residues 47-435). Also, the half-maximal inhibitory concentration (IC50) at Cbl-b (Example 121) was 22 nM; against c-Cbl, 180 nM. Moreover, on Cbl-b, the “(fold-selectivity) Cbl-b and C-Cbl Selectivity” value is 8.0x.

In experiment [1], `CO[C@H]1C[C@@H]([C@@H](c2cccc(N3Cc4c(cc(CN5CCN(C)C[C@@H]5C(C)C)cc4C(F)(F)F)C3=O)c2)c2nncn2C)C1` (stereo in doubt) [Compound 13, 6-(((S)-2-isopropyl-4-methylpiperazin-1-yl)methyl)-2-(3-((S)-((1 S,3S)-3-methoxycyclobutyl)(4-methyl-4H-1,2,4-triazol-3-yl)methyl)phenyl)-4-(trifluoromethyl)isoindolin-1-one] had a Fold of selectivity of 4.1× and a Kd of 120 nM. At Cbl-b, inhibition was half-maximal at 200 nM (IC50) and the “fold-selectivity (Cbl-b over C-cbl)” value was “(2.7x)”. This molecule gave a 50% inhibitory concentration (IC50) on c-Cbl of 540 nM. On c-Cbl (residues 47-435), this molecule yielded an equilibrium dissociation constant (Kd) of 490 nM.

Take `Cn1cnnc1C(F)(c1cccc(N2Cc3c(cc(CNC4(C)CCC4)cc3C(F)(F)F)C2=O)c1)C1(F)COC1` (stereo in doubt) [Compound 403, (S)-2-(3-(fluoro(3-fluorooxetan-3-yl)(4-methyl-4H-1,2,4-triazol-3-yl)methyl)phenyl)-6-(((1-methylcyclobutyl)amino)methyl)-4-(trifluoromethyl)isoindolin-1-one]: in experiment [1], the Fold of selectivity came out at 1.0× and the affinity, expressed as Kd, was 2500 nM. Further, on Cbl-b, the IC50 amounted to 750 nM and the “fold-selectivity (Cbl-b over C-cbl)” value was determined as 1.3x. The IC50 against c-Cbl came to 960 nM. For the same molecule, on c-Cbl (residues 47-435), the equilibrium dissociation constant (Kd) was determined as 2400 nM.

Consider `Cn1cnnc1C(F)(c1cccc(N2Cc3c(cc(CNC4(C)CCC4)cc3C(F)(F)F)C2=O)c1)C1(F)COC1` (stereo in doubt) [Compound 404, (R)-2-(3-(fluoro(3-fluorooxetan-3-yl)(4-methyl-4H-1,2,4-triazol-3-yl)methyl)phenyl)-6-(((1-methylcyclobutyl)amino)methyl)-4-(trifluoromethyl)isoindolin-1-one], for which the Fold of selectivity in experiment [1] is on record as 2.6×. The Kd in experiment [1] was found to be 0.85 nM; on c-Cbl (residues 47-435) it was 2.2 nM. The half-maximal inhibitory concentration (IC50) was 4.8 nM at Cbl-b (Example 121) and 4.9 nM on c-Cbl. Besides, the “(fold-selectivity) Cbl-b and C-Cbl Selectivity” value on Cbl-b was found to be 1.0x.

Turning to `CCNc1cc(C2(c3nncn3C)CC3(COC3)C2)cc(N2Cc3c(cc(CNC4(C)CCC4)cc3C(F)(F)F)C2=O)n1` [Compound 7, 2-(6-(ethylamino)-4-(6-(4-methyl-4H-1,2,4-triazol-3-yl)-2-oxaspiro[3.3]heptan-6-yl)pyridin-2-yl)-6-(((1-methylcyclobutyl)amino)methyl)-4-(trifluoro-methyl)isoindolin-1-one], the Fold of selectivity in experiment [1] is given as 4.4×. Also, the values for the Kd (in experiment [1]; on c-Cbl (residues 47-435)) were 1.3 nM and 5.7 nM, respectively. For the same molecule, the 50% inhibitory concentration (IC50) against Cbl-b was determined as 27 nM; at c-Cbl, 25 nM. Besides, the “fold-selectivity (Cbl-b over C-cbl)” value on Cbl-b was “(0.93x)”.

In experiment [1], `CO[C@H]1C[C@@](c2cc(NC3CCCC3)nc(N3Cc4c(cc(CNC5(C)CCC5)cc4C(F)(F)F)C3=O)c2)(c2nncn2C)C1` [Compound 8, 2-(6-(cyclopentylamino)-4-((1s,3s)-3-methoxy-1-(4-methyl-4H-1,2,4-triazol-3-yl)cyclobutyl)pyridin-2-yl)-6-(((1-methylcyclobutyl)amino)methyl)-4-(trifluoromethyl)isoindolin-1-one] had a Fold of selectivity of 6.9× and an equilibrium dissociation constant (Kd) of 3.3 nM. At Cbl-b, the half-inhibitory concentration (IC50) worked out at 11 nM and the “fold-selectivity (Cbl-b over C-cbl)” value came to 3.9x. Also, the half-inhibitory concentration (IC50) at c-Cbl is 43 nM. Besides, binding on c-Cbl (residues 47-435) was put at a Kd of 23 nM.

In experiment [1], `CO[C@H]1C[C@](c2cc(NC3CCCC3)nc(N3Cc4c(cc(CNC5(C)CCC5)cc4C(F)(F)F)C3=O)c2)(c2nncn2C)C1` [Compound 9, 2-(6-(cyclopentylamino)-4-((1r,3r)-3-methoxy-1-(4-methyl-4H-1,2,4-triazol-3-yl)cyclobutyl)pyridin-2-yl)-6-(((1-methylcyclobutyl)amino)methyl)-4-(trifluoromethyl)isoindolin-1-one] had a Fold of selectivity of 20× and a dissociation constant (Kd) of 11 nM. Further, at Cbl-b, the IC50 was 11 nM and the “fold-selectivity (Cbl-b over C-cbl)” value is on record as 8.4x. Half-maximal inhibition on c-Cbl (IC50) required 118 nM. At c-Cbl (residues 47-435), this molecule displayed an equilibrium dissociation constant (Kd) of 220 nM.

As to `Cn1cnnc1C1(c2cc(C3CC3)nc(N3Cc4c(cc(CNC5(C)CCC5)cc4C(F)(F)F)C3=O)c2)CC(F)(F)C1` [Compound 16, 2-(6-cyclopropyl-4-(3,3-difluoro-1-(4-methyl-4H-1,2,4-triazol-3-yl)cyclobutyl)pyridin-2-yl)-6-(((1-methylcyclobutyl)amino)methyl)-4-(trifluoromethyl)isoindolin-1-one], in experiment [1], the Fold of selectivity worked out at 1.3× and the Kd turned out to be 0.25 nM. At Cbl-b, the IC50 stood at 6.9 nM and the “fold-selectivity (Cbl-b over C-cbl)” value was “(0.75x)”. Besides, at c-Cbl, the IC50 turned out to be 5.2 nM. Further, at c-Cbl (residues 47-435), the Kd is 0.34 nM.

For the molecule `CCNc1cc(C2(c3nncn3C)CC(F)(F)C2)cc(N2Cc3c(cc(CNC4(C)CCC4)cc3C(F)(F)F)C2=O)n1` [Compound 17, 2-(4-(3,3-difluoro-1-(4-methyl-4H-1,2,4-triazol-3-yl)cyclobutyl)-6-(ethylamino)pyridin-2-yl)-6-(((1-methylcyclobutyl)amino)methyl)-4-(trifluoromethyl)isoindolin-1-one], in experiment [1], the Fold of selectivity is given as 3.2× and the affinity, expressed as Kd, was 0.37 nM. Also, on Cbl-b, the half-maximal inhibitory concentration (IC50) is 5.5 nM and the “fold-selectivity (Cbl-b over C-cbl)” value is on record as “(0.93x)”. Also, the IC50 at c-Cbl is 5.1 nM. Moreover, the Kd at c-Cbl (residues 47-435) is 1.1 nM.
